Results on three molecules are retold here after patent US4609664A, “Antiasthmatic piperidylidene derivatives” (Sandoz Ltd., priority 1980, dated 1986).

SMILES strings stand for the structures. Read-outs that look alike come from different tables or passages of the source.

The subject of this assay is cutaneous anaphylactic reaction. In words: passive cutaneous anaphylaxis (PCA) test in the rat. The format is in vivo. Particulars: dose decreasing diameter of blue area by 50% vs solvent controls, female rats. As for the experimental part: This activity is indicated in the passive cutaneous anaphylaxis (PCA) test in the rat.
The method employed in this test is based on those described by Mota, Immunology 7, 681 (1964) and Stofland and Share, J. Physiol. Pharmacol. 52, 1114 (1974). Female rats (180-200 g) are sensitized by subcutaneous administration of 1 mg of ovalbumin and 200 mg aluminium hydroxide, dissolved in 1 ml of physiological saline solution and intraperitoneal administration of 0.5 ml of Haemophilus pertussis vaccine (SchweizerischesSerum- und Impfinstitut, Bern, Switzerland; 4×10^10 organism/ml). Fourteen day later, the animals are decapited, the blood centrifuged and the serum (anti-ovalbumin serum) collected and deep frozen.
The diluted anti-ovalbumin serum is injected intradermally (0.1 ml per injection site) at […] on the backs of untreated, female rats. Twenty-four hours after the passive sensitisation, the rats receive either solvent or the test compound i.v. in a tail-vein or per os. Immediately afterwards or, in the case of p.o. administration, 60 minutes later, the animals receive an intravenous injection of 1 ml of antigen. The antigen (5 mg/ml) is dissolved in a 0.25% solution of Evans blue dye in physiological saline. In the controls this injection elicits a cutaneous anaphylactic reaction, the intensity of which is proportional to the distance to which the dye diffuses into the tissue surrounding the four sensitisation sites. Thirty minutes later, the rats are killed in CO2 and the diameter in mm of the blue spot at each injection site measured. The drug dose decreasing the diameter of the blue area by 50% compared with solvent pretreated control rats (ED50), is obtained from the regression line. The dose-effect correlation is tested for statistical significance.
In the above test, compounds of the formula I are found to be active on administration at dosages of from about 0.1 to about 3.2 mg/kg p.o. and from about 0.056 to about 1.00 mg/kg i.v. ED50 values for the representative compounds 4-{1-[2-[2-(2-hydroxy-ethoxy)ethoxy]ethyl]piperidin-4-yliden}-4H-benzo[4,5]cyclohepta[1,2-b]thiophen-10(9H)-one. HBr (Compound A) and 2-{2-[2-[4-(5H-dibenzo[a,d]cyclohept-5-yliden)piperidin-1-yl]ethoxy]ethoxy}ethanol hydrogenofumarate (Compound B) as well as for the reference compound 5,5'-[(2-hydroxy-1,3-propanediyl)bis-(oxy)]bis[4-oxo-4H-1-benzopyran-2-carboxylic acid]

Where [1] appears, read: iv, i.v. in a tail-vein, immediately before antigen, read-out: ED50 (i.v.).
Where [2] appears, read: po, 60 minutes before antigen, read-out: ED50 (p.o).

By ED50 is commonly meant the dose at which the effect has come halfway, by size or by number of responders. `O=C1Cc2ccccc2C(=C2CCN(CCOCCOCCO)CC2)c2ccsc21` [Compound A, 4-{1-[2-[2-(2-hydroxy-ethoxy)ethoxy]ethyl]piperidin-4-yliden}-4H-benzo[4,5]cyclohepta[1,2-b]thiophen-10(9H)-one. HBr]: the ED50 reads like this: under setting [1], roughly 0.21 mg/kg; under setting [2], roughly 1.8 mg/kg.

As for `OCCOCCOCCN1CCC(=C2c3ccccc3C=Cc3ccccc32)CC1` [Compound B, 2-{2-[2-[4-(5H-dibenzo[a,d]cyclohept-5-yliden)piperidin-1-yl]ethoxy]ethoxy}ethanol hydrogenofumarate], the ED50 reads like this: under setting [1], roughly 0.22 mg/kg; under setting [2], roughly 0.49 mg/kg.

Regarding `O=C(O)c1cc(=O)c2c(OCC(O)COc3cccc4oc(C(=O)O)cc(=O)c34)cccc2o1` [Compound C, 5,5'-[(2-hydroxy-1,3-propanediyl)bis-(oxy)]bis[4-oxo-4H-1-benzopyran-2-carboxylic acid], reference compound], under setting [1], the ED50 is roughly 2.6 mg/kg.
